Values of other authors, collected in patent publication US10759976B2, “Color changeable adhesives and methods of making such adhesives” (Sensor International, LLC, priority 2018, dated 2020).
Where two headings read alike, the source gives them in different places.

[1] = Table 2, carbon dioxide sensitive pigments/dyes
[2] = Table 4, ammonia sensitive pigments/dyes
[3] = Table 3, fluorimetric pigments/dyes

Compound | pKa [1] | pKa [2] | pKa [3]
5′ and 6′-Carboxyseminaphtholrhodamine | 7.5 |  | 
o-Cresolphthalein | 9.4 |  | 
CN(C)c1ccc(N=Nc2ccc(S(=O)(=O)[O-])cc2)cc1.[Na+] [Methyl Orange] |  | 4.2 | 
O=C([O-])c1c(Cl)c(Cl)c(Cl)c(Cl)c1-c1c2cc(Br)c(=O)c(Br)c-2oc2c(Br)c([O-])c(Br)cc12.[Na+].[Na+] [Phloxine B] |  | 2.5 | 
CN(C)c1ccc(/N=N/c2ccccc2C(=O)O)cc1 [Methyl red] |  | 5.4 | 
O=S1(=O)OC(c2ccc(O)c(Cl)c2)(c2ccc(O)c(Cl)c2)c2ccccc21 [Chlorophenol red] |  | 6.3 | 
O=S1(=O)OC(c2cc(Cl)c(O)c(Br)c2)(c2cc(Cl)c(O)c(Br)c2)c2ccccc21 [Bromochlorophenol blue] |  | 6.0 | 
Nitrazine yellow |  | 6.4 | 
5′ and 6′-Carboxyseminaphtholfluorescein | 7.4 |  | 
O=C1c2ccccc2C(=O)c2c1cc(S(=O)(=O)O)c(O)c2O [Alizarin red S] |  | 4.5 | 
CCN(CC)c1ccc(N=Nc2ccc(S(=O)(=O)[O-])cc2)cc1.[K+] [Ethyl orange] |  | 4.3 | 
Cc1cc(O)c(C(C)C)cc1C1(c2cc(C(C)C)c(O)cc2C)OC(=O)c2ccccc21 [Thymolphthalein, 3,3-bis(4-hydroxy-2-methyl-5-propan-2-ylphenyl)-2-benzofuran-1-one] | 9.7 |  | 
O=C1c2ccccc2C(=O)c2c1ccc(O)c2O [Alizarin] |  | 6.8 | 
Cc1cc(O)ccc1C1(c2ccc(O)cc2C)OS(=O)(=O)c2ccccc21 [m-Cresol Purple] | 8.3 | 1.5 | 
CN(C)c1ccc(N=Nc2ccccc2)cc1 [Methyl yellow] |  | 3.3 | 
Cc1cc(O)c(C(C)C)cc1C1(c2cc(C(C)C)c(O)cc2C)OS(=O)(=O)c2ccccc21 [Thymol blue, thymolsulphonephthalein] | 9.0 | 1.6 | 
O=S1(=O)OC(c2cc(Br)c(O)c(Br)c2)(c2cc(Br)c(O)c(Br)c2)c2ccccc21 [Bromophenol blue] |  | 3.9 | 
Cc1c(C2(c3cc(Br)c(O)c(Br)c3C)OS(=O)(=O)c3ccccc32)cc(Br)c(O)c1Br [Bromocresol green] |  | 4.7 | 
O=C(O)Cc1cc(=O)oc2cc(O)ccc12 [7-hydroxycoumarin-4-acetic acid] | 7.8 |  | 
O=S1(=O)OC(c2ccc(O)cc2)(c2ccc(O)cc2)c2ccccc21 [Phenol Red, phenolsulfonphthalein] | 7.6 | 7.6 | 
O=S(=O)(O)c1cc(O)c2ccc3c(S(=O)(=O)O)cc(S(=O)(=O)O)c4ccc1c2c34 [1, Hydroxypyrene-3,6,8-trisulphonic acid] | 8.1 |  | 8.1
NC(=O)NN=Cc1ccccc1O [salicylaldehyde semicarbazone] |  |  | 7.8
